According to patent US4994270A, “A54145 antibiotics and process for their production” (Eli Lilly and Company, priority 1988, dated 1991):
Values after ≈ are worked out from the molar mass of the structure shown. Starred links: 1 amine or outer side, 2 acyl side, 3 side chain; linkers in the order of their positions; H or OH if unused. Positions of bridges follow the written chain, without caps; N, C: chain ends. Non-standard residues stand in square brackets, D forms with d. Residues, ends and D or L forms follow the SMILES beside them. ξ: configuration not given here. *: point of attachment. ξAsp(3ξ-OMe) = COC(C(=O)O)C(N)C(=O)O; X1 = CC(CC(=O)O)C(N[*:1])C(=O)[*:2]; ξAsn(3ξ-OH) = NC(=O)C(O)C(N)C(=O)O; Decanoyl = CCCCCCCCCC(=O)*; X3 = CCC(C)CCCCCCC(=O)*; X2 = CC(C)CCCCCCC(=O)*; Sar = CNCC(=O)O

Experiments:
[1] = system: Streptococcus pyogenes; assay: ED50 in experimentally infected mice; format: in vivo; settings: mice infected with Streptococcus pyogenes; subcutaneous; doses given 1 and 4 hours postinfection
Procedure: The A54145 antibiotics have shown in vivo antimicrobial activity against experimentally-induced infections in laboratory animals. When two doses of test compound were administered to mice experimentally infected with Streptococcus pyogenes or Staphylococcus aureus, the activity observed was measured as an ED50 value [effective dose in mg/kg to protect 50% of the test animals: see Warren Wick, et al. J. Bacteriol. 81 233-235 (1961)].

[2] = system: Staphylococcus epidermidis EPI1; assay: MIC, conventional agar-dilution assay; format: cell-based
Procedure: (§1) The A54145 antibiotics inhibit the growth of pathogenic bacteria. […] The MIC's in Table IX were determined by conventional agar-dilution assays.

[3] = system: Staphylococcus aureus S13E; assay: MIC, conventional agar-dilution assay; format: cell-based
Procedure: as §1

[4] = system: Streptococcus sp. group 2041; assay: MIC, conventional agar-dilution assay; format: cell-based
Procedure: as §1

[5] = system: Staphylococcus aureus X1.1; assay: MIC, conventional agar-dilution assay; format: cell-based
Procedure: as §1

[6] = system: Streptococcus pneumoniae Park1; assay: MIC, conventional agar-dilution assay; format: cell-based
Procedure: as §1

[7] = system: Staphylococcus aureus V41; assay: MIC, conventional agar-dilution assay; format: cell-based
Procedure: as §1

[8] = system: Streptococcus pyogenes C203; assay: MIC, conventional agar-dilution assay; format: cell-based
Procedure: as §1

[9] = system: Staphylococcus epidermidis 222; assay: MIC, conventional agar-dilution assay; format: cell-based
Procedure: as §1

[10] = system: Staphylococcus aureus X400; assay: MIC, conventional agar-dilution assay; format: cell-based
Procedure: as §1

[11] = system: Streptococcus sp. group D X66; assay: MIC, conventional agar-dilution assay; format: cell-based
Procedure: as §1

[12] = Chick growth performance test (weight gain, feed efficiency); format: in vivo, chicks; settings: for Feed/Gain Ratio / Weight Gain Amt. / Feed/Gain % Impr. / Weight Gain % Impr.: Table XIII; for Weight Gain Amt.: chicks 7-14 days of age; for Feed/Gain % Impr. / Weight Gain % Impr.: relative to the control mean
From the text: In the tests, the compounds were given to chicks at the concentrations indicated in the feed. The test period was the 7-day period from 7-14 days of age of the birds. Growth performance (weight gain, feed consumption and feed efficiency) was compared to that of contemporary controls.

SMILES | MIC [2] | MIC [3] | MIC [4] | MIC [5] | MIC [6] | MIC [7] | MIC [8] | MIC [9] | MIC [10] | MIC [11] | also measured
CCCCCCCCCC(=O)NC(Cc1c[nH]c2ccccc12)C(=O)NC(CCC(=O)O)C(=O)NC(C(=O)NC1C(=O)N(C)CC(=O)NC(C)C(=O)NC(CC(=O)O)C(=O)NC(CCCCN)C(=O)NC(C(OC)C(=O)O)C(=O)NCC(=O)NC(CC(N)=O)C(=O)NC(CCC(=O)O)C(=O)NC(C(C)CC)C(=O)OC1C)C(O)C(N)=O (stereo not shown) [Component A54145A1] (Decanoyl-WE[ξAsn(3ξ-OH)]T[Sar]ADK[ξAsp(3ξ-OMe)]GNEI; ester 4-C; configuration not given here) | 4 µg/mL (≈ 2.43 µM) | 8 µg/mL (≈ 4.86 µM) | 32 µg/mL (≈ 19.5 µM) | 4 µg/mL (≈ 2.43 µM) | 4 µg/mL (≈ 2.43 µM) | 4 µg/mL (≈ 2.43 µM) | 1 µg/mL (≈ 0.608 µM) | 4 µg/mL (≈ 2.43 µM) | 8 µg/mL (≈ 4.86 µM) | 16 µg/mL (≈ 9.73 µM) | ED50 Value [1]: 5.0 mg/kg × 2
CCC(C)C1NC(=O)C(C(C)CC(=O)O)NC(=O)C(CC(N)=O)NC(=O)CNC(=O)C(C(OC)C(=O)O)NC(=O)C(CCCCN)NC(=O)C(CC(=O)O)NC(=O)C(C)NC(=O)CN(C)C(=O)C(NC(=O)C(NC(=O)C(CCC(=O)O)NC(=O)C(Cc2c[nH]c3ccccc23)NC(=O)CCCCCCC(C)C)C(O)C(N)=O)C(C)OC1=O (stereo not shown) [Component A54145B1] (X2-WE[ξAsn(3ξ-OH)]T[Sar]ADK[ξAsp(3ξ-OMe)]GN[X1]I; ester 4-C; configuration not given here) | 1 µg/mL (≈ 0.603 µM) | 2 µg/mL (≈ 1.21 µM) | 32 µg/mL (≈ 19.3 µM) | 2 µg/mL (≈ 1.21 µM) | 2 µg/mL (≈ 1.21 µM) | 2 µg/mL (≈ 1.21 µM) | 0.5 µg/mL (≈ 0.301 µM) | 1 µg/mL (≈ 0.603 µM) | 2 µg/mL (≈ 1.21 µM) | 8 µg/mL (≈ 4.82 µM) | Feed/Gain Ratio ([12]; 5 g/ton): 1.906; Weight Gain Amt. ([12]; 5 g/ton in feed): 326 g; Feed/Gain % Impr. ([12]; 5 g/ton): 5.3%; Weight Gain % Impr. ([12]; 5 g/ton): 3.5%; Feed/Gain Ratio ([12]; 10 g/ton): 1.860; Weight Gain Amt. ([12]; 10 g/ton in feed): 358 g; Feed/Gain % Impr. ([12]; 10 g/ton): 7.4%; Weight Gain % Impr. ([12]; 10 g/ton): 13.7%; Feed/Gain Ratio ([12]; 20 g/ton): 1.686; Weight Gain Amt. ([12]; 20 g/ton in feed): 448 g; Feed/Gain % Impr. ([12]; 20 g/ton): 16.2%; Weight Gain % Impr. ([12]; 20 g/ton): 42.2%
CCCCCCCCCC(=O)NC(Cc1c[nH]c2ccccc12)C(=O)NC(CCC(=O)O)C(=O)NC(C(=O)NC1C(=O)N(C)CC(=O)NC(C)C(=O)NC(CC(=O)O)C(=O)NC(CCCCN)C(=O)NC(C(OC)C(=O)O)C(=O)NCC(=O)NC(CC(N)=O)C(=O)NC(C(C)CC(=O)O)C(=O)NC(C(C)CC)C(=O)OC1C)C(O)C(N)=O (stereo not shown) [Component A54145B] (Decanoyl-WE[ξAsn(3ξ-OH)]T[Sar]ADK[ξAsp(3ξ-OMe)]GN[X1]I; ester 4-C; configuration not given here) | 2 µg/mL (≈ 1.21 µM) | 2 µg/mL (≈ 1.21 µM) | 8 µg/mL (≈ 4.82 µM) | 2 µg/mL (≈ 1.21 µM) | 2 µg/mL (≈ 1.21 µM) | 2 µg/mL (≈ 1.21 µM) | 0.5 µg/mL (≈ 0.301 µM) | 2 µg/mL (≈ 1.21 µM) | 2 µg/mL (≈ 1.21 µM) | 4 µg/mL (≈ 2.41 µM) | Feed/Gain Ratio ([12]; 5 g/ton): 1.887; Weight Gain Amt. ([12]; 5 g/ton in feed): 341 g; Feed/Gain % Impr. ([12]; 5 g/ton): 6.3%; Weight Gain % Impr. ([12]; 5 g/ton): 8.3%; Feed/Gain Ratio ([12]; 10 g/ton): 1.730; Weight Gain Amt. ([12]; 10 g/ton in feed): 392 g; Feed/Gain % Impr. ([12]; 10 g/ton): 14.1%; Weight Gain % Impr. ([12]; 10 g/ton): 24.4%; Feed/Gain Ratio ([12]; 20 g/ton): 1.785; Weight Gain Amt. ([12]; 20 g/ton in feed): 402 g; Feed/Gain % Impr. ([12]; 20 g/ton): 11.3%; Weight Gain % Impr. ([12]; 20 g/ton): 27.6%; weight gains in chickens (in words) ([12]; chickens): increased weight gains; ED50 Value [1]: 0.94 mg/kg × 2
CCC(C)CCCCCCC(=O)NC(Cc1c[nH]c2ccccc12)C(=O)NC(CCC(=O)O)C(=O)NC(C(=O)NC1C(=O)N(C)CC(=O)NC(C)C(=O)NC(CC(=O)O)C(=O)NC(CCCCN)C(=O)NC(C(OC)C(=O)O)C(=O)NCC(=O)NC(CC(N)=O)C(=O)NC(C(C)CC(=O)O)C(=O)NC(C(C)C)C(=O)OC1C)C(O)C(N)=O (stereo not shown) [Component A54145C] (X3-WE[ξAsn(3ξ-OH)]T[Sar]ADK[ξAsp(3ξ-OMe)]GN[X1]V; ester 4-C; configuration not given here) | 2 µg/mL (≈ 1.21 µM) | 2 µg/mL (≈ 1.21 µM) | 4 µg/mL (≈ 2.41 µM) | 2 µg/mL (≈ 1.21 µM) | 2 µg/mL (≈ 1.21 µM) | 2 µg/mL (≈ 1.21 µM) | 0.5 µg/mL (≈ 0.301 µM) | 1 µg/mL (≈ 0.603 µM) | 2 µg/mL (≈ 1.21 µM) | 4 µg/mL (≈ 2.41 µM) | 
CCC(C)CCCCCCC(=O)NC(Cc1c[nH]c2ccccc12)C(=O)NC(CCC(=O)O)C(=O)NC(C(=O)NC1C(=O)N(C)CC(=O)NC(C)C(=O)NC(CC(=O)O)C(=O)NC(CCCCN)C(=O)NC(C(OC)C(=O)O)C(=O)NCC(=O)NC(CC(N)=O)C(=O)NC(CCC(=O)O)C(=O)NC(C(C)CC)C(=O)OC1C)C(O)C(N)=O (stereo not shown) [Component A54145D] (X3-WE[ξAsn(3ξ-OH)]T[Sar]ADK[ξAsp(3ξ-OMe)]GNEI; ester 4-C; configuration not given here) | 2 µg/mL (≈ 1.21 µM) | 4 µg/mL (≈ 2.41 µM) | 32 µg/mL (≈ 19.3 µM) | 4 µg/mL (≈ 2.41 µM) | 4 µg/mL (≈ 2.41 µM) | 4 µg/mL (≈ 2.41 µM) | 0.5 µg/mL (≈ 0.301 µM) | 2 µg/mL (≈ 1.21 µM) | 4 µg/mL (≈ 2.41 µM) | 4 µg/mL (≈ 2.41 µM) | 
CCC(C)CCCCCCC(=O)NC(Cc1c[nH]c2ccccc12)C(=O)NC(CCC(=O)O)C(=O)NC(C(=O)NC1C(=O)N(C)CC(=O)NC(C)C(=O)NC(CC(=O)O)C(=O)NC(CCCCN)C(=O)NC(C(OC)C(=O)O)C(=O)NCC(=O)NC(CC(N)=O)C(=O)NC(C(C)CC(=O)O)C(=O)NC(C(C)CC)C(=O)OC1C)C(O)C(N)=O (stereo not shown) [Component A54145E] (X3-WE[ξAsn(3ξ-OH)]T[Sar]ADK[ξAsp(3ξ-OMe)]GN[X1]I; ester 4-C; configuration not given here) | 1 µg/mL (≈ 0.598 µM) | 2 µg/mL (≈ 1.2 µM) | 4 µg/mL (≈ 2.39 µM) | 1 µg/mL (≈ 0.598 µM) | 1 µg/mL (≈ 0.598 µM) | 2 µg/mL (≈ 1.2 µM) | 0.25 µg/mL (≈ 0.149 µM) | 1 µg/mL (≈ 0.598 µM) | 2 µg/mL (≈ 1.2 µM) | 2 µg/mL (≈ 1.2 µM) | 
COC(C(=O)O)C1NC(=O)C(CCCCN)NC(=O)C(CC(=O)O)NC(=O)C(C)NC(=O)CN(C)C(=O)C(NC(=O)C(NC(=O)C(CCC(=O)O)NC(=O)C(Cc2c[nH]c3ccccc23)NC(=O)CCCCCCC(C)C)C(O)C(N)=O)C(C)OC(=O)C(C(C)C)NC(=O)C(CCC(=O)O)NC(=O)C(CC(N)=O)NC(=O)CNC1=O (stereo not shown) [Component A54145F] (X2-WE[ξAsn(3ξ-OH)]T[Sar]ADK[ξAsp(3ξ-OMe)]GNEV; ester 4-C; configuration not given here) | 16 µg/mL (≈ 9.81 µM) | 16 µg/mL (≈ 9.81 µM) | > 32 µg/mL | 16 µg/mL (≈ 9.81 µM) | 8 µg/mL (≈ 4.91 µM) | 16 µg/mL (≈ 9.81 µM) | 4 µg/mL (≈ 2.45 µM) | 8 µg/mL (≈ 4.91 µM) | 16 µg/mL (≈ 9.81 µM) | 16 µg/mL (≈ 9.81 µM) | 
